Experimental data from patent publication US20220218800A1, “BETA-LACTAMASE COMPOSITIONS FOR TREATMENT OF GRAFT VERSUS HOST DISEASE” (Synthetic Biologics, Inc., priority 2019, published 2022).
Where two headings read alike, the source gives them in different places.

Tests used:
[1] = Piperacillin levels in mouse stool after s.c. piperacillin/tazobactam with or without oral P3A; format: in vivo, mice; details: piperacillin/tazobactam 500 mg/kg s.c. twice per day for two days + P3A liquid formulation 10 mg/kg oral gavage twice per day for two days; FIG. 1
Method: Mice received a subcutaneous administration of 500 mg/kg piperacillin/tazobactam twice per day for two days. […] A control cohort of mice received neither piperacillin/tazobactam nor P3A via oral gavage.
After 2 days, mouse stool was evaluated for presence of piperacillin.

[2] = test system: Firmicutes bacterial phylum; experiment: 16S sequencing of mouse stool: Firmicutes level, piperacillin/tazobactam with or without P3A; format: in vivo, mice; details: FIG. 2
Method: (§1) Mice received a subcutaneous administration of 125 mg/kg piperacillin/tazobactam twice per day for two days. […] A control cohort of mice received neither piperacillin/tazobactam nor P3A via oral gavage. Another control cohort of mice received P3A only.

Enterococcus [3] = experiment: 16S sequencing of stool at day 21 post-transplantation: Enterococcus monodomination (SYN-004); format: in vivo, 129S1 mice
Method: This experiment was conducted to assess the effect of SYN-004 administration on modulating and/or reducing Enterococcus monodomination. The experiment was also designed to assess whether SYN-004 administration could prevent the decrease of microbiome diversity in lethally irradiated mice having undergone a bone marrow transplantation.
129S1 mice were lethally irradiated and then transplanted with bone marrow cells (B6 donor bone marrow) at 5M and defined doses of splenic T lymphocytes from C57BL/6 mice at 2M. The mice were divided in three cohorts: (1) a cohort that received administration of saline; (2) a cohort that received administration of piperacillin/tazobactam; and (3) a cohort that received administration of piperacillin/tazobactam (Zosyn, abbreviated as ZO) and SYN-004 (P3A; abbreviated as Blact).
Stool samples were collected at day 21 post-transplantation and 16S sequencing analysis was performed.

129S1 mice [4] = experiment: Survival study of antibiotic-exacerbated GVHD after bone marrow transplantation (P3A); format: in vivo; details: BM+T cells; piperacillin/tazobactam 100 mg/kg s.c. + P3A 20 mg/kg oral gavage three times per week from day 10; endpoint 30 days post-BMT; FIG. 4
Method: This experiment was conducted to assess the effect of SYN-004 administration on protecting and/or reducing GVHD severity associated with bone marrow transplantation.
129S1 mice were lethally irradiated and then transplanted with bone marrow cells (B6 donor bone marrow) at 5M and defined doses of splenic T lymphocytes from C57BL/6 mice at 2M. Both of these mice share the MHC-type H2b and thus represent a clinically relevant MHC-matched transplantation model.

total bacteria = experiment: 16S sequencing of mouse stool: total bacteria copies per gram of stool; format: in vivo, mice; details: FIG. 3
Method: as §1
16S sequencing analysis was also performed to evaluate the total bacteria copies present per gram of mouse stool.

Enterococcus [5] = experiment: 16S sequencing of mouse stool: Enterococcus monodomination, imipenem+cilastatin with or without SYN-006; format: in vivo, mice; details: FIG. 8; for largest bars (genus) in 16S analysis, post-antibiotic: post-abx; for Enterococcus monodominance in stool: vs imipenem+cilastatin only
Method: (§2) Next, experiments were conducted to assess the effect of SYN-006 (P2A) administration on modulating and/or reducing Enterococcus monodomination, and specifically, overgrowth of Enterococcus faecium, in imipenem-treated mice.
(§3) Mice received a subcutaneous administration of 100 mg/kg imipenem+cilastatin for two days, with stool samples collected on the third day. […] Stool samples were collected on day 3 and 16S sequencing analysis was performed.

129S1 mice [6] = experiment: Survival study of antibiotic-exacerbated GVHD after bone marrow transplantation (P2A); format: in vivo; details: BM+T cells; imipenem+cilastatin 100 mg/kg s.c. + P2A 50 mg/kg oral gavage three times per week days 10-25; endpoint 40 days post-BMT; p=0.0096, Mantel-Cox test; FIG. 10
Method: This experiment was conducted to assess the effect of SYN-006 (P2A) administration on protecting and/or reducing GVHD severity associated with bone marrow transplantation.
129S1 mice were lethally irradiated and then transplanted with bone marrow cells (B6 donor bone marrow) at 5M and defined doses of splenic T lymphocytes from C57BL/6 mice at 2M. Both of these mice share the MHC-type H2^b and thus represent a clinically relevant MHC-matched transplantation model.

Enterococcus faecium = experiment: Relative abundance of Enterococcus faecium in stool of imipenem-treated mice; format: in vivo; details: imipenem+cilastatin 100 mg/kg s.c. alone or with P2A 1, 10, 50 mg/kg oral gavage; FIG. 9
Method: as §2, §3

[7] = test system: Firmicutes bacterial phylum; details: stool day 3, FIG. 7
Method: Experiments were conducted to determine whether a liquid formulation of SYN-006 (e.g., a beta-lactamase in a phosphate-buffered saline solution) could be delivered to the small and large intestine of mice via oral gavage.
Mice received a subcutaneous administration of 100 mg/kg imipenem+cilastatin for two days, with stool samples collected on the third day.
On day 3, mouse stool was collected.

[8] = piperacillin/tazobactam 125 mg/kg s.c. + P3A 10 mg/kg oral gavage, twice per day for two days
[9] = piperacillin/tazobactam alone, 125 mg/kg s.c. twice per day for two days

## SYN-004: beta-lactamase with the amino acid sequence of SEQ ID NO: 1; D276N relative to P1A
[1]
  amount of piperacillin in mouse stool: reduced
[2]; [8]
  fold abundance of Firmicutes in mouse stool: recovered and protected
Enterococcus [3]; FIG. 5, Zosyn+SYN-004
  largest bars (genus) in 16S analysis: Clostridium
Enterococcus [3]; FIG. 6, BM (bone marrow) group, ZO+Blact
  largest bars (genus) in 16S analysis: Enterococcus in the first two bars from the left and Clostridium in the next two bars from the left
Enterococcus [3]; FIG. 6, BM+T cells group, ZO+Blact
  largest bars (genus) in 16S analysis: Clostridium
Enterococcus [3]; piperacillin/tazobactam + SYN-004 vs piperacillin/tazobactam only, day 21 post-transplantation, FIG. 5 and 6
  Enterococcus monodominance in stool: reduced Enterococcus monodominance
129S1 mice [4]
  survival (mortality), antibiotic-exacerbated GVHD: reduced antibiotic-exacerbated GVHD
Total bacteria; [8]
  total bacterial copies present in mouse stool: decrease was reduced

## imipenem+cilastatin [reference compound]
Enterococcus [5]; imipenem group (no P2A)
  largest bars (genus) in 16S analysis, post-antibiotic: Enterococcus

## piperacillin/tazobactam [reference compound]
[2]; [9]
  abundance of Firmicutes in mouse stool: reduced
Enterococcus [3]; FIG. 5, Zosyn alone
  largest bars (genus) in 16S analysis: Enterococcus
Enterococcus [3]; FIG. 6, BM (bone marrow) group, ZO alone
  largest bars (genus) in 16S analysis: Enterococcus
Enterococcus [3]; FIG. 6, BM+T cells group, ZO alone
  largest bars (genus) in 16S analysis: Enterococcus
Total bacteria; [9]
  total bacterial copies present in mouse stool: decreased

B1: SYN-006: beta-lactamase polypeptide with the sequence of SEQ ID NO: 6 (protein)
chain: ETGTISISQLNKNVWVHTELGYFNGEAVPSNGLVLNTSKGLVLVDSSWDNKLTKELIEMVEKKFQKRVTDVIITHAHADRIGGITALKERGIKAHSTALTAELAKNSGYEEPLGDLQTITSLKFGNTKVETFYPGKGHTEDNIVVWLPQYQILAGGCLVKSAEAKDLGNVADAYVNEWSTSIENVLKRYGNINSVVPGHGEVGDKGLLLHTLDLLK
modifications: Synthetic polymer.
129S1 mice [6]
  survival (mortality), antibiotic-exacerbated GVHD: reduced antibiotic-exacerbated GVHD
Enterococcus faecium
  overgrowth (relative abundance) of Enterococcus faecium in mouse stool: prevents overgrowth of Enterococcus faecium
[7]; imipenem+cilastatin 100 mg/kg s.c. for two days + P2A 10 mg/kg oral gavage twice per day
  fold abundance of Firmicutes in mouse stool: recovered and protected
[7]; imipenem+cilastatin 100 mg/kg s.c. for two days + P2A 50 mg/kg oral gavage twice per day
  fold abundance of Firmicutes in mouse stool: recovered and protected
Enterococcus [5]; imipenem+P2A (1 mg) group
  largest bars (genus) in 16S analysis, post-antibiotic: Enterococcus
Enterococcus [5]; imipenem+P2A (10 mg) group
  largest bars (genus) in 16S analysis, post-antibiotic: Clostridium
Enterococcus [5]; imipenem+P2A (50 mg) group
  largest bars (genus) in 16S analysis, post-antibiotic: Lactobacillus and Clostridium
Enterococcus [5]; imipenem+cilastatin 100 mg/kg s.c. + SYN-006 10 mg/kg oral gavage twice per day for two days
  Enterococcus monodominance in stool: reduced Enterococcus monodominance
Enterococcus [5]; imipenem+cilastatin 100 mg/kg s.c. + SYN-006 50 mg/kg oral gavage twice per day for two days
  Enterococcus monodominance in stool: reduced Enterococcus monodominance
